Here are results for 4 molecules from ChEMBL document CHEMBL1201862, “PubChem BioAssay data set” (2004).

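1) Cells in 96-well plates. 2) Compound, 48 h, 5 concentrations. 3) Linear interpolation between surrounding doses. 4) Unreached endpoint = highest concentration. Here, GI50 denotes the concentration required for 50% inhibition of growth.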 Activity calls are given as the source filed them. Cut-off read from the data, not from the text of the source: active = GI50 up to about 1.1 µM and inactive = higher.

Some test systems named below: UACC-257; COLO 205; SN12C; ACHN; NCI-H226; SF-268; K562; EKVX; UO-31; NCI-H23; U-251; MOLT-4; SW-620; A549; RXF 393; SF-539; HOP-62; UACC-62; M19-MEL; DMS-114.
Assay in all cases: NCI tumour cell line growth inhibition, 48 h

`CCOC(=O)c1c(-c2cccc(Cl)c2)c(C(=O)OC)c(C)c2sc(C=O)nc12`: the GI50 in the experiment with UACC-257 is 31.8 µM (inactive); with COLO 205, 17.5 µM (inactive); in the experiment on SN12C, 16.6 µM (inactive); in the experiment on ACHN it was 16.8 µM (inactive); with NCI-H226, 21.8 µM (inactive); with SF-268, 19 µM (inactive). For the same molecule, the GI50 in the experiment with K562 was 27.5 µM (inactive); in the experiment on EKVX, 16.6 µM (inactive); in the experiment with UO-31, 17.8 µM (inactive); with NCI-H23, 51.9 µM (inactive); in the experiment on U-251, 17.7 µM (inactive); with MOLT-4, 12.8 µM (inactive). Besides, the GI50 is 48.4 µM (inactive) in the experiment on SW-620; 49.9 µM (inactive) in the experiment on A549; 23.8 µM (inactive) in the experiment on RXF 393; 18.1 µM (inactive) in the experiment on SF-539; 13.6 µM (inactive) in the experiment with HOP-62; 15.8 µM (inactive) in the experiment with UACC-62.

On to `CN1C2CCC1/C(=C/c1cccc3c1OCO3)C(=O)/C2=C\c1cccc2c1OCO2`, for which the GI50 with UACC-257, with M19-MEL, with COLO 205, in the experiment on SN12C, with ACHN and in the experiment on NCI-H226 was > 100 µM (inactive) in each case. In addition, the GI50 in the experiment on SF-268 was 47.6 µM (inactive); in the experiment on K562 it was > 10 µM (inactive); with EKVX, > 100 µM (inactive); in the experiment on UO-31 it was > 100 µM (inactive); with NCI-H23, > 100 µM (inactive); in the experiment on U-251 it was 24.5 µM (inactive). Further, the GI50 in the experiment on MOLT-4 was > 100 µM (inactive); in the experiment on SW-620, > 100 µM (inactive); in the experiment with DMS-114, > 100 µM (inactive); in the experiment on RXF 393, 11.3 µM (inactive); in the experiment on HOP-62, 12.3 µM (inactive); with UACC-62, 14.3 µM (inactive).

For `CC1(C)N=C(N)N=C(N)N1c1ccc(CCc2ccccc2)cc1`, the GI50 in the experiment on UACC-257 is 2.96 µM (inactive); in the experiment on M19-MEL, 2.84 µM (inactive); with COLO 205 it was 1.36 µM (inactive); with SN12C it was 0.759 µM (active); in the experiment with NCI-H226 it was 14.2 µM (inactive); in the experiment on SF-268 it was 0.618 µM (active). Besides, the GI50 was 2.23 µM (inactive) in the experiment on K562; 0.622 µM (active) in the experiment with EKVX; > 34.1 µM (inactive) with UO-31; 1.43 µM (inactive) in the experiment with NCI-H23; 0.435 µM (active) in the experiment on U-251; 3.61 µM (inactive) in the experiment on MOLT-4. Also, the GI50 in the experiment with SW-620 is 0.301 µM (active); in the experiment with A549 it was 0.46 µM (active); in the experiment on DMS-114 it was 0.647 µM (active); in the experiment with RXF 393, > 20.9 µM (inactive); in the experiment with SF-539, 2.78 µM (inactive); in the experiment with UACC-62, 1.02 µM (active).

With `CCCCCC(/C=C/c1ncccc1OCCCCCC(=O)O)=N\NC1=NCCN1`, the GI50 with M19-MEL was > 100 µM (inactive); in the experiment on COLO 205 it was 53.8 µM (inactive); with SN12C it was 94.4 µM (inactive); in the experiment with ACHN, > 100 µM (inactive); in the experiment with NCI-H226, > 100 µM (inactive); with SF-268, > 100 µM (inactive). The GI50 was 60.3 µM (inactive) with K562; > 100 µM (inactive) in the experiment with EKVX; > 100 µM (inactive) with UO-31; 62.7 µM (inactive) in the experiment with MOLT-4; 85.1 µM (inactive) in the experiment on SW-620; > 100 µM (inactive) with A549. Besides, the GI50 with DMS-114 is 45.2 µM (inactive); in the experiment on RXF 393, > 100 µM (inactive); with SF-539, 76 µM (inactive); in the experiment with HOP-62, > 100 µM (inactive); in the experiment with UACC-62, 44.1 µM (inactive).
